Measurements as given in EP0609032A1, “Aromatic imine compounds, pharmaceutical composition thereof, useful as protein synthesis inhibitors” (NORSK HYDRO A/S, priority 1993, dated 1994).
Entries after “also recorded” stand apart in the source; their conditions may differ.

Columns and labels:
Format in all cases: cell-based
[1] = tested on: human NHIK 3025/MEM cervix carcinoma cells; assay: Rate of protein synthesis ([3H]-valine incorporation) in NHIK 3025 cells; details: NHIK 3025/MEM cells, 1 hour treatment with [3H]-valine, compared to prior art compound 15
Text: Human cells of the established line NHIK 3025, originating from a cervical carcinoma in situ (Nordbye, K. and Oftebro, R., Exp. Cell Res., 58: 458, (1969)), (Oftebro, R. and Nordbye, K., Exp. Cell Res., 58: 459-460, (1969)) were cultivated in medium E2a (Puck et al., J. Exp. Med., 106: 145-165, (1957)) supplemented with 20% human (prepared at the laboratory) and 10% horse serum (Grand Island Biological Co.).
(§1) The cells are routinely grown as monolayers in tissue culture flasks. The cells were kept in continuous exponential growth by frequent reculturing, i.e. every second or third day.
(§2) During reculturing as well as during experiments the cells were kept in a walk-in incubator at 37°C.
(§3) The rate of protein synthesis was calculated as described previously (Rønning et al., J. Cell Physiol., 107: 47-57, (1981)). Briefly, cellular protein was labeled to saturation during a 2-day preincubation with [¹⁴C]-valine of constant specific radioactivity (0.5 Ci/mol) prior to the experiment. This was achieved by using a high concentration of valine so that the dilution of [¹⁴C]- valine by intracellular valine and by proteolytically generated valine will be negligible (Rønning et al., Exp. Cell Res., 123: 63-72, (1979)), thus keeping the specific radioactivity at a constant level. The rate of protein synthesis was calculated from the incorporation of [³H]-valine of constant specific activity. The incorporated measurements were related to the total of [¹⁴C]-radioactivity in protein at the beginning of the respective measurement periods and expressed as the percentage per hr (Rønning et al., J. Cell. Physiol., 107: 47-57, (1981)).
In Figure 1 the rate of protein synthesis (as % of control rate) is shown in relation to the concentration of imine used in the treatment of human NHIK 3025/MEM cervix carcinoma cells cultivated in vitro. The treatment period was for 1 hour during which the cell culture medium contained [³H]-valine in addition to the test compound. […]

[2] = tested on: murine B16 melanoma cells; assay: Rate of protein synthesis in B16 melanoma cells; details: Figure 3, compared to prior art compound 15
Protocol: as §3
In Figure 3, the effect of two imine compounds, 3 and 7, according to the invention and the effect of the prior art compound 15 on the protein synthesis of murine B16 melanoma cells is shown.

[3] = tested on: non-malignant cell line V79 (Chinese hamster lung cells); assay: Rate of protein synthesis in V79 cells; details: Figure 4
Text: V79 379-A cells were provided by Dr. Laszlo Révész (Karolinska Institutet, Stockholm) in 1976 and have since been cultivated in MEM medium (Hank's salts) supplemented with 15% newborn bovine serum. These cells are a clone of the line V79, isolated from Chinese hamster normal lung tissue and established in culture by Ford and Yerganian (see J. Natl. Cancer Inst. 21, (1958) 393-425).
as §1, §2, §3
In Figure 4 the effect of two preferred imines according to the invention, compounds 3 and 7 , on the rate of protein synthesis in the non-malignant cell line V79 (Chinese hamster lung cells).

[4] = tested on: 3T3 cells (derived from mouse embryo); assay: Rate of protein synthesis in 3T3 cells; details: Figure 5
Text: Balb 3T3-A cells were isolated by Aaronsen and Todaro (J. Cell Physiol. 72, (1968)) 41-148) and were provided by Dr. T.Ege (Karolinska Institutet, Stockholm) in 1980 and have since been cultivated in MEM medium (Hank's salts) supplemented with 15% newborn bovine serum.
as §1, §2, §3
In Figure 5 the effect of compounds 3 and 7 on the rate of the protein synthesis of 3T3 cells (derived from mouse embryo) is shown.

[5] = tested on: human pancreatic carcinoma cell line PANC-1; assay: Rate of protein synthesis and cell inactivation ([14C]-radioactivity) in PANC-1 cells; details: for cell inactivating effect at concentrations (decline in [¹⁴C]-radioactivity): decrease in [14C]-radioactivity is a sign of cell death
Protocol: PANC-1 cells were purchased from the American Type Culture Collection (ATCC) in 1990. These cells were derived from a human adenocarcinoma of ductal origin (Lieber et al, Int. J. Cancer 15, (1975) 741-747).
as §1, §2, §3
In Figures 6a) and b) the human pancreatic carcinoma cell line PANC-1, cultivated in the medium MEM (with new born calf serum), was used .
In Figures 7a) and b) the human pancreatic carcinoma cell line PANC-1, cultivated in the medium E2a (with human and horse serum), was used .

SMILES	rate of protein synthesis (as % of control rate) ([1]; Figure 1)	effect on the protein synthesis [2]	effect on the rate of protein synthesis [3]	effect on the rate of the protein synthesis [4]	further results
O=C(O)CCCCCN=Cc1cccc([N+](=O)[O-])c1 [Compound 3, 6-(3-Nitrobenzylidene-Amino)-Hexanoic Acid]	inhibited to a greater degree; also recorded: strongest inhibition on protein synthesis	much stronger protein synthesis inhibiting effect	significantly inhibit protein synthesis	strong protein synthesis inhibition	
COC(=O)c1ccc(C=NCCCCCCCCCCC(=O)O)cc1 [Compound 4, 11-(4-Carbomethoxy-benzylidene-Amino) -Undecanoic Acid]	inhibited to a greater degree; also recorded: strongest inhibition on protein synthesis				
O=[N+]([O-])c1cccc(C=NCCCCO)c1 [Compound 7, 4-(3-Nitrobenzylidene-Amino)-Butan-1-ol]		much stronger protein synthesis inhibiting effect	significantly inhibit protein synthesis; also recorded: slightly more effective than compound 3	strong protein synthesis inhibition	rate of protein synthesis (as % of control rate) ([1]; Figure 2): inhibited to a greater degree; also recorded: strongest inhibition on protein synthesis
[2H]C(=NCCCN(C)C)c1ccccc1 [Compound 14, 1-(Benzylidene-d1-Amino)-3-(Dimethyl-amino)-Propane]					cell inactivating effect at concentrations (decline in [¹⁴C]-radioactivity) ([5]; Figure 6b, PANC-1 in medium MEM): above 2 mM; cell inactivating effect at concentrations (decline in [¹⁴C]-radioactivity) ([5]; Figure 7b, PANC-1 in medium E2a): above 2 mM
[2H]C1(c2ccccc2)OC[C@@H]([C@H]2OC(=O)C(O)=C2O)O1 (stereo partly drawn) [Compound 15, Sodium 5,6-0-Benzylidene-d1-L-Ascorbate, reference compound]			little or no inhibition	little effect	protein synthesis inhibiting activity ([5]; Figures 6a/6b, PANC-1 in medium MEM (with new born calf serum)): little protein synthesis inhibiting activity; protein synthesis inhibiting activity ([5]; Figures 7a/7b, PANC-1 in medium E2a (with human and horse serum)): little protein synthesis inhibiting activity
